Reference: patent publication US20150136638A1, “METHOD FOR PREPARING A SYRUPY PRODUCT COMPRISING VITAMINS” (LaboratoiresUrgo, priority 2012, published 2015)

Test: Assay of the vitamins contained in a randomly taken bottle of the syrupy product of Example 2 (yield = actual / theoretical amount x 100)
Format: physicochemical
Conditions: syrupy product of Example 2, after preparation and packaging under inert atmosphere; actual amount of vitamin in the bottle divided by theoretical amount x 100
Procedure: The process can be broken down into the following steps: • the two preparation tanks (PT1 and PT2) and the pipe connecting them are inerted with an overpressure of inert gas at 0.4 bar for 300 sec.; • the sugar syrup is introduced into the main preparation tank (PT1); • the sugar syrup is left to stir with bubbling of nitrogen with a pressure of 0.4 bar and a flow rate of 4 Nm^3/h for 4 hours; • the sugar syrup is heated at 50° C. by means of the double jackets surrounding tank PT1; • the pH of the sugar syrup is adjusted to 9.5 by introducing the sodium hydroxide and the ascorbic acid; • the secondary preparation tank (PT2) is preheated at 50° C. by means of the double jackets surrounding tank PT2; • the Montanox 80 and the following fat-soluble vitamins: vitamin A, vitamin D3, vitamin E, are introduced into the secondary preparation tank (PT2); • the mixture in tank PT2 is left to stir at 50° C. and with bubbling of nitrogen for 60 minutes; • the content of tank PT2 is transferred to tank PT1 via the pipe connecting them; • tank PT2 is rinsed several times with water, at 50° C., purified and deoxygenated beforehand, and the rinsing water is then transferred to tank PT1 via the pipe connecting PT2 to PT1; • the content of tank PT1 is left to stir at 50° C. and with bubbling of nitrogen for 60 minutes; • the temperature of the content of tank PT1 is reduced to 35° C.; • the following water-soluble vitamins: vitamin B1, vitamin B2, vitamin B3, vitamin B5, vitamin B6, vitamin B8, vitamin B12 and vitamin C, and also the plum flavoring, are introduced into tank PT1; • the reservoirs which contained the vitamins are rinsed with purified water and the rinsing water is added to tank PT1; • the content of tank PT1 is left to stir at 35° C. and with bubbling of nitrogen for 120 minutes; • the dehydrated glucose is introduced into tank PT1 via the powder-transferring system; • purified and deoxygenated water is introduced into tank PT1; • the content of tank PT1 is left to stir at 35° C. and with bubbling of nitrogen for 60 minutes; • the piping between tank PT1 and the storage tank is inerted, and the storage tank is inerted with a nitrogen pressure at 0.4 bar and a flow rate of 1 Nm^3/h for 300 seconds; • the content of tank PT1 is transferred to the storage tank passing through the mixer into which nitrogen is injected, in contraflow to the passage of the liquid, with a pressure of 0.4 bar and a flow rate of 8 Nm^3/h; • the syrupy product which gradually accumulates in the storage tank is kept stirring at 150 rpm and with bubbling of nitrogen with a pressure of 0.4 bar and a flow rate of 2 Nm^3/h; • the pipes between the storage tank and the bottle-filling machine, and also the packaging hopper, are inerted with nitrogen at a pressure of 0.3 bar for 600 seconds; • the syrupy product is transferred to the packaging hopper and the content is kept at a nitrogen pressure of 0.2 bar; • the syrupy product is gradually transferred to the bottle-filling machine; • the bottles are inerted with nitrogen at 1 bar for 100 milliseconds, then they are filled with a volume of syrupy product metered by a positive-displacement pump and they are kept under a nitrogen atmosphere until they are closed by means of a crimped valve.
One of the bottles produced is taken randomly and the vitamins contained in this bottle are assayed. The yields are calculated by dividing the actual amount of vitamins that is contained in the bottle by the theoretical amount of vitamins that should be in the bottle, and by multiplying the result by 100.

Question: With `Cc1cc2nc3c(=O)[nH]c(=O)nc-3n(C[C@H](O)[C@H](O)[C@H](O)CO)c2cc1C` [Vitamin B2, riboflavin] as the molecule, how does the “YIELD (individual vitamin ratio)” value read?
Answer: The value was 98.6%.

Question: Which “YIELD (individual vitamin ratio)” value does the source give for Vitamin E here?
Answer: Its value is 100%.

Question: For `O=C(O)c1cccnc1` [Vitamin B3, nicotinic acid], which “YIELD (individual vitamin ratio)” value is on record?
Answer: The value was 98.8%.

Question: Which “YIELD (individual vitamin ratio)” value does the source give for `CC1=C(/C=C/C(C)=C/C=C/C(C)=C/CO)C(C)(C)CCC1` [Vitamin A, retinol] here?
Answer: The value was 100%.

Question: Which “YIELD (individual vitamin ratio)” value does the source give for `CC(C)(CO)[C@@H](O)C(=O)NCCC(=O)O` [Vitamin B5, pantothenic acid] here?
Answer: Its value is 100%.

Question: Which “YIELD (individual vitamin ratio)” value does the source give for `Cc1ncc(CO)c(CO)c1O` [Vitamin B6, pyridoxine] here?
Answer: Its value is 98.6%.
